The test system of the assay is human GABAB receptor 1 promoter P1b. The assay can be described thus: Luciferase reporter assay of GABAB receptor 1 promoter P1b activity (pAM440) in transfected ND7/23 cells. The format is cell-based. The conditions noted are these: Forskolin 10 μM + 1-methyl-3-isobutylxanthine 0.125 mM, 24 h. How it is done: Reporter constructs containing R1a and R1b promoter fragments were generated by PCR using plasmid pAM 364, containing genomic sequence covering the promoter regions, as template. PCR reaction was performed by standard procedure (Perkin Elmer). Briefly, an initial denaturation at 95° C. for 4 min was followed by 35 cycles of denaturation at 95° C. for 1 min, annealing at 60° C. for 1 min, elongation at 72° C. for 1 min and finally a 7 min elongation at 72° C. […]
To determine putative promoter activity, the reporter gene constructs were introduced into mammalian cells by transfection. […] Luciferase activity in cell extracts was measured in a Luciferase Assay System (Promega), where 40 μl of cell extracts was added to a 96-well plate (Maxisorp, Nunc) and mixed with 50 μl of luciferase substrate. Luciferase activity was then measured in a LUMIstar (BMG Lab technologies). As internal control for transfection efficiency, β-Galactosidase (β-Gal.) activity was measured in 96-well plate (Maxisorp, Nunc) using a β-Galactosidase Enzyme Assay (Promega) according to suppliers protocol.
ND7/23 cells (4×10^5) were transfected with promoter-luciferase constructs as described above. […] After incubation, cells were harvested and luciferase activity measured. Luciferase activity, minus background, is shown as arbitrary light units measured in 40 μl of cell extracts. […]

Turning to `CC(C)Cn1c(=O)n(C)c(=O)c2[nH]cnc21` [IBMX, 1-methyl-3-isobutylxanthine], the “further enhancement of forskolin induced expression” value was “does not show a significant difference”.
